ChEMBL document CHEMBL1146169, “In silico identification and biochemical characterization of novel inhibitors of NQO1” (Bioorg Med Chem Lett, 2006)

biological target: NAD(P)H dehydrogenase [quinone] 1 (Homo sapiens, UniProt P15559)
Sequence (P15559 whole entry): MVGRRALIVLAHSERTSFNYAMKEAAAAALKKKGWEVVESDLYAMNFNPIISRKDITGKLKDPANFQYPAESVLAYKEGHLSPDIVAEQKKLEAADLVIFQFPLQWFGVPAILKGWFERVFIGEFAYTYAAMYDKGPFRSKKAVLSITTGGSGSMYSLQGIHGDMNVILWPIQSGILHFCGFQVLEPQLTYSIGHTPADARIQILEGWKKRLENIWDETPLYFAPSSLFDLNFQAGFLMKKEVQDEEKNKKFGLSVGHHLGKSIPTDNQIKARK
Description: Inhibition of human recombinant NQO1

| Compound | IC50 |
| --- | --- |
| CNC(=O)N(OC(N)=O)C(C)=O | 55 µM |
| Cc1cc(=O)cc(C)o1 | 20 µM |
| COc1ccc(OC)c2cc3ccccc3cc12 | 10 µM |
| CCOC(=O)C1=NN(c2ccccc2)C(=O)/C1=C\NC(=S)N/N=C1\C(=O)Nc2ccccc21 | 35 µM |
| Cn1ncc2c(Cl)ncnc21 | 105 µM |
| O=C1c2ccccc2C(=O)c2c(O)c(NCCCN3CCOCC3)cc(O)c21 | 2 µM |
| CCOc1ccc(OCC)cc1 [1,4-DIETHOXYBENZENE] | 3.5 µM |
| C(=N\NC1=NCCN1)/c1c2ccccc2c(/C=N/NC2=NCCN2)c2ccccc12 [BISANTRENE] | 25 µM |
| COc1ccc2c(c1)-c1nn(CCCN(C)C)c3ccc([N+](=O)[O-])c(c13)N2 [PYRAZOLOACRIDINE] | 45 µM |

Further compounds by falling IC50, results first:

| IC50 | Compound |
| --- | --- |
| 35 µM | O=[N+]([O-])c1ccc(N/N=C(\N=N\c2ccccc2)c2nc3ccccc3[nH]2)c([N+](=O)[O-])c1 |
| 25 µM | Nc1nc2cc3nc(N)c(N)nc3cc2nc1N |
| 17.5 µM | O=C1c2ccccc2C(=O)c2c(O)c(NCCCNCCO)cc(O)c21 |
| 10 µM | CN(C)CCNc1ccc2ncn3c4ccc(O)cc4c(=O)c1c23 |
| 7.5 µM | Nc1ccc(O)c2c1C(=O)c1c(O)c(S(=O)(=O)O)cc(N)c1C2=O |
| 3 µM | Cn1c2cc(O)ccc2c2c3nc4ccccc4nc3cc(O)c21 |
| 3 µM | O=C1c2ccccc2C(=O)c2c(O)c(NCCCN(CCO)CCO)cc(O)c21 |
| 2 µM | O=c1c2ccccc2c(=O)c2c1c(O)cc1[nH]c3ccccc3[nH]c12 |
